Source: patent publication EP3572468B1, “CYANINE DYES AND THEIR USAGE FOR IN VIVO STAINING OF MICROORGANISMS” (PHILIPPS-UNIVERSITÄT MARBURG, priority 2018, dated 2019)
“Also recorded” adds a separate entry of the source.

Legend:
dsDNACT [1] = assay: Fluorescence quantum yield with dsDNACT; assay type: physicochemical, calf; settings: with dsDNACT (30 eq.); 10 mM Tris pH 7.6 and 50 mM KCI, 25°C; reference dye Alexa Fluor 647
Protocol: Fluorescence intensity values for the quantum yields were determined on an ISS PC1 spectrofluorometer with an ISS 11650 lamp connected to an ISS Simpson model 109 and an ISS 80011 photomulitplier connected to a MGW Lauda K2R D and an Amherst Scientific Corp. 7600F for cooling. A VWR Refrigerated Circ 1160S was connected for the cooling of the cuvette chamber. It was measured in a 1400 µL fluorescence cuvette of HellmaAnalytics (104F-QS) at 25°C using the following settings: increment: 2.0 nm; integration time: 1.0 s; excitation slit width: 0.25 mm; emission slit width: 0.5 mm; excitation wavelength 590 nm. The emission spectra were recorded from 610 to 750 nm. From all spectra the corresponding background signal was substracted. Absorbance values were measured on a Jasco V-650 UV-Vis Spectrophotometer equipped with a Jasco PAC-743 temperature controlled cell holder and a Julabo F250 cooling system. […] The values for the reference compounds were measured in duplicates, the ones for 6-TramTO-3 with and without dsDNACT in triplicates. The quantum yields of 6-TramTO-3 with (30 eq.) and without dsDNACT were determined in 10 mM Tris pH 7.6 and 50 mM KCI. […]
Table 3: Determined slopes and corresponding quantum yields for the two reference compounds Alexa Flour® 647 and Atto 655 and for 6-TramTO-3 with and without dsDNACT.

[2] = system: antibiotic-resistant Klebsiella pneumoniae (K. pneumoniae); assay type: cell-based; settings: 2.5 µM dye
Protocol: (§1) Escherichia coli (E. coli) NEB5α (New England Biolabs) and antibiotic-resistant and -sensitive Klebsiella pneumoniae (K. pneumoniae) were cultured in Luria-Bertani (LB) solid medium (LB-Agar) overnight at 37°C. The source of the K. pneumoniae strands is of no relevance to the invention. The invention may be applied to all types of microorganisms (bacteria, viri, fungi etc.) or other cells, either contained within a sample or isolated from a sample. For staining, growth curve analysis and replating experiments bacteria were suspended in LB liquid medium at an OD600 nm of 1.0 and 800 µL were transferred into a culture tube containing 7.2 mL of LB liquid medium supplemented with DMSO or candidate dyes (2.5 µM) final concentration). Density of bacterial cultures was measured using an Ultrospec 10 Cell Density Meter with 600 nm LED source (Amersham Biosciences). […]
(§2) Bacteria and macrophages were washed with PBS prior to flow cytometry and analysed using a Guava easyCyte flow cytometer (Millipore). FCS3.0 files were analysed using Flowing Software (http://flowingsoftware.btk.fi/). Cells were first gated in the forward- / side-scatter plot to exclude debries, followed by quadrant gating in plots using the fluorescence channels as shown above. […] Propidium iodide signal was recorded in the yellow channel.

[3] = system: Escherichia coli (E. coli) NEB5α; assay: Bacteria culture and staining: growth and FACS labeling of E. coli; assay type: cell-based
Protocol: Escherichia coli (E. coli) NEB5α (New England Biolabs) and antibiotic-resistant and -sensitive Klebsiella pneumoniae (K. pneumoniae) were cultured in Luria-Bertani (LB) solid medium (LB-Agar) overnight at 37°C. The source of the K. pneumoniae strands is of no relevance to the invention. The invention may be applied to all types of microorganisms (bacteria, viri, fungi etc.) or other cells, either contained within a sample or isolated from a sample. For staining, growth curve analysis and replating experiments bacteria were suspended in LB liquid medium at an OD600 nm of 1.0 and 800 µL were transferred into a culture tube containing 7.2 mL of LB liquid medium supplemented with DMSO or candidate dyes (2.5 µM) final concentration). Density of bacterial cultures was measured using an Ultrospec 10 Cell Density Meter with 600 nm LED source (Amersham Biosciences). For bacterial re-plating experiments bacteria were sampled at OD600 nm = 2.0 and 5 µL of indicated dilutions in LB-medium were spotted onto LB-agar plates (Fig. 5) or 100 µL were plated onto LB-agar plates followed by incubation at 37°C until colonies became visible.
Bacteria and macrophages were washed with PBS prior to flow cytometry and analysed using a Guava easyCyte flow cytometer (Millipore). FCS3.0 files were analysed using Flowing Software (http://flowingsoftware.btk.fi/). Cells were first gated in the forward- / side-scatter plot to exclude debries, followed by quadrant gating in plots using the fluorescence channels as shown above. For discrimination of live/dead cell discrimination cells in PBS were supplemented with 0.4 µL/mL propidium-iodide (5 mg/ml solution) followed by 5 min incubation on ice. Propidium iodide signal was recorded in the yellow channel.

[4] = Excitation and emission spectra; assay type: physicochemical; settings: aqueous solution; 10 µM in 10 mM Tris pH 7.6 and 50 mM KCI
Protocol: Fluorescence measurements and tritations were performed on a Jasco FP-6500 spectrofluorometer equipped with a Thermo Haake WKL 26 water recirculator at 20°C. Unless otherwise noted, a 1400 µL fluorescence cuvette of HellmaAnalytics (104F-QS) was used and the measurements were performed with the following settings: increment: 1.0 nm; integration time: 0.2 s; speed: 500 nm/min; sensitivity: medium; excitation slit width: 3 nm; emission slit width: 3 nm; excitation wavelength 610 nm. The emission spectra were recorded from 625 to 750 nm at 20°C. From all spectra, the corresponding background signal was substracted. The used hairpin double-stranded DNAs dsDNAhAT and dsDNAhGC had the sequences depicted in Table. 1. Table 1: Binding sites and sequences of DNA hairpins, which were used for fluorescence titrations experiments.
For each cyanine dye derivative: 6-AzTO-3, 6-TramTO-3 and 6-NH2TO-3, the excitation and emission spectra of a 10 µM solution of the corresponding compound in 1 mL of 10 mM Tris pH 7.6 and 50 mM KCI were measured. The excitation spectra were recorded at an emission of 670 nm in a rage from 500 - 660 nm (slit 5/10 nm), while the emission spectra were measured at an excitation of 590 nm in a range from 600 - 750 nm (slit 5/10 nm). (cf. Fig. 13)

[5] = system: antibiotic-sensitive Klebsiella pneumoniae (K. pneumoniae); assay: Bacteria culture and staining: growth and FACS labeling of sensitive K. pneumoniae; assay type: cell-based; settings: 2.5 µM dye
Protocol: as §1, §2

dsDNACT [6] = assay: Thermal melting analysis of dsDNACT; assay type: binding, calf
Protocol: Thermal melting analysis was performed on a Jasco J-810 spectropolarimeter equipped with a Jasco CDF-426S peliter controller and a Thermo Haake WKL 26 water recirculator. It was measured at a concentration of 45 µM of dsDNACT with and without 1.8 µM of 6-TramTO-3 in 10 mM Tris pH 7.5. The measurement was performed at 260 nm, with a response of 2 s, a band width of 10 nm, from 40-95°C, a slope of 2°C/min. Three independent measurements were recorded and the intensity normalized.

CC[n+]1ccc(/C=C/C=C2\Sc3ccccc3N2CCCCCCn2cc(CN)nn2)c2ccccc21.[I-] [6-TramTO-3, 4-((1E,3Z)-3-(3-(6-(4-(aminomethyl)-1H-1,2,3-triazol-1-yl)hexyl)benzo[d]thiazol-2(3H)-ylidene)prop-1-en-1-yl)-1-ethylquinolin-1-ium iodide]
quantum yield (ΦF) (dsDNACT [1]): 0.27 | bacterial growth in presence of dye [2]: grew normally | fluorescent labeling of live bacteria (FACS) ([2]; OD600 = 2.0): successfully fluorescently labeled | bacterial growth in presence of dye ([3]; 2.5 µM dye in LB medium, OD600 over time, liquid and solid medium): fully compatible with normal bacterial growth; also recorded: grew normally | fluorescent labeling of live bacteria (FACS) ([3]; 2.5 µM dye in culture medium, FACS at mid-exponential growth phase (OD600 = 2.0)): successfully fluorescently labeled | long wavelength maximum of emission [4]: 645 nm | long wavelength maximum of excitation [4]: 633 nm | bacterial growth in presence of dye [5]: grew normally | fluorescent labeling of live bacteria (FACS) ([5]; OD600 = 2.0): successfully fluorescently labeled | melting point of dsDNACT with addition of dye (dsDNACT [6]; 45 µM dsDNACT with 1.8 µM dye in 10 mM Tris pH 7.5, dsDNACT alone 68.12°C): 72.66 °C | ΔTm (dsDNACT [6]; dsDNACT stabilization upon dye binding, 45 µM dsDNACT, 1.8 µM dye, 10 mM Tris pH 7.5): 5 °C
